Here are results for 5 compounds from paper PMC6828666, “Discovery of holoenzyme-disrupting chemicals as substrate-selective CK2 inhibitors” (Scientific Reports, 2019).

The test system of assay [1] is panels of different kinases. Details: method as in PMID 28451126. Particulars: cited from earlier work.
The target in the next assay is T1, CK2α2β2 holoenzyme (Homo sapiens, UniProt P68400).
T1 construct: made in house; host or cells: Escherichia coli (CK2α)
Nature of the assay: CK2 kinase assay with CK2β-dependent peptide substrate (eIF2-derived). Conditions: compound at 50 μM; CK2β-dependent peptide substrate. The format is biochemical. How it is done: First, all the compounds were dissolved at 200 μM in 50 mM Tris-HCl pH 7.5 buffer containing 0.1 M NaCl and 5% DMSO; the compounds that precipitated under these conditions were discarded. The 32 remaining compounds were diluted at 200 μM in the kinase buffer and centrifuged at 14,000 g. The supernatant was then assayed for ability to inhibit phosphorylation of a CK2β-dependent peptide substrate. For this, a 22-residue long N-terminal fragment of the eukaryotic translation initiation factor 2 (eIF2), known to be exclusively phosphorylated by the CK2α2β2 holoenzyme[4] was used as a substrate. […]
Final concentration of ATP was 100 μM. Assays were performed under linear kinetic conditions for 5 min at room temperature before termination by the addition of 60 μL of 4% TCA. ^32P incorporation in peptide substrate was determined as previously described. […]

A further assay concerns the target CK2α (Homo sapiens, UniProt P68400). The assay can be described thus: SPR binding studies on captured GST-CK2α. Conditions: surface plasmon resonance. As for the experimental part: SPR competition studies (Fig. 2i) were performed using a BIAcore 3000 instrument (BIAcore AB) equipped with a CM5 sensor chip (BIAcore AB). After activation with a solution of N-hydroxysuccinimide and N-ethyl-N-(dimethylaminopropyl)carbodiimide hydrochloride (coupling solution BIAcore AB), the anti-GST antibody diluted at 30 μg/ml in 10 mM acetate buffer pH 5.0 was injected at a flow rate of 5 μL/min for 7 min. All the surfaces were blocked with a 3 min injection at 10 μL/min of 1 M ethanolamine, pH 8.0. GST-CK2α (50 μg/ml) was immobilized on the surface at a flow rate of 5 μL/min in HBS (10 mM Hepes pH 7.3, 0.15 M NaCl, 3 mM EDTA, 0.005% polysorbate 20). MBP-CK2β diluted at 50 μg/ml in HBS buffer was injected over the surface at a flow rate of 5 μL/min in presence of various compound 1 concentration. Regeneration of the surfaces was achieved by injection of 10 mM glycine-HCl pH 2.2. SPR binding studies (Supplementary Fig. S7) were performed using a Reichert SR7000DC instrument optical biosensor (Reichert Technologies) equipped with a CMD500m sensor chip obtained from XanTec Bioanalytics. CK2α was immobilized by a capturing approach using a monoclonal anti-GST antibody (27 kDa, Clone GST-R 6G9 produced in rat, SAB4200055 Sigma Aldrich). Prior to use, the anti-GST antibodies were purified twice by micro dialysis at 4 °C (Membrane: dialysis tubing benzoylated, 9 mm, D2272-5FT) in 10 mM sodium acetate, pH = 5. Anti-GST antibodies were immobilized using amine-coupling chemistry at 12 °C. The surfaces of all two flow cells were activated for 7 min with a 1:1 mixture of 0.1 M NHS (N-hydroxysuccinimide) and 0.1 M EDC (3-(N,N-dimethylamino) propyl-N-ethylcarbodiimide) at a flow rate of 10 μL/min. The antibody at a concentration of 30 μg/mL in 10 mM sodium acetate, pH 5.0, was immobilized at a density of 2000 RU on flow cell 2; flow cell 1 was left blank to serve as a reference surface. All the surfaces were blocked with a 3 min injection at 10 μL/min of 1 M ethanolamine, pH 8.0. GST tagged CK2α at a concentration of 50 μg/mL in 10 mM HEPES, 150 mM NaCl, 3 mM EDTA, 0.005% (v/v) polysorbate 20, pH = 7.4 was captured at a density of 900 RU on flow cell 2. In order to collect kinetic binding data, analytes in 10 mM HEPES, 150 mM NaCl, 3 mM EDTA, 0.005% (v/v) polysorbate 20, 1% DMSO (v/v), 100 μM ATP, pH = 7.4 were injected over the two flow cells at concentrations of 50, 25, 12.5, 6.25, 3.12, 1.56 μM at a flow rate of 25 μL/min and at a temperature of 25 °C. The complex was allowed to associate and dissociate for 120 s. Duplicate injections (in random order) of each sample and a buffer blank were flowed over the two surfaces. Affinities were obtained after treatments (DMSO calibration, blank and references subtractions) using the software Scrubber 2.0c.
Fig. S7. Binding kinetics of compounds 2-6 by surface plasmon resonance. For each compound, sensorgrams (black line) and global fits (orange line) are depicted with the corresponding chemical structure and the fitted kinetics parameters. Experiments show representative data of two identical repeats.

The subject of the next assay is MCF10A cells. The assay can be described thus: Cell growth inhibition (IncuCyte). Conditions: 24 h. The format is cell-based, human. How it is done:
Cells grown on 96-well flat-bottomed plates (Corning Falcon) were tracked using an Essen IncuCyte Zoom live-cell microscopy instrument, an automated live cell imager with high-throughput capabilities and built-in data analysis. Experiments were conducted at 37 °C and 5% CO2. The software incorporated into the IncuCyte Zoom was used to analyze the images.
MCF10A and MDA-MB231 cells were seeded into 96-well plates at a density (1 × 10^4 and 2 × 10^4 cells/well, respectively) and allowed to attach overnight. Bright field images were captured every 3 h for the duration of the experiment. The detection software was calibrated specifically for MCF10A and MDA-MB231 to ensure accurate distinction of cells from empty space. Cell proliferation data were obtained by the cell confluence increment in each of the treatments and expressed as percentage relative to that of control cells.
Fig. S9. […] (a) MCF10A cells were incubated with increasing concentrations of 6 for 24 h. (b) Inset: western blot analysis of CK2 subunits in parental MCF10A cells (WT) or CK2β knockdown MCF10A cells (∆CK2β). Uncropped blots are shown in Supplementary Fig. S16. MCF10A WT (r,p) or MCF10A ∆CK2β (○,●) were incubated with DMSO (r,○) or 50 μM 6 (p,●) for the indicated time. Cell growth was monitored using an Essen IncuCyte Zoom live-cell microscopy incubator. Images were captured every 15 min for the duration of the experiment. […]

Assay [2] addresses [35S]methionine-labeled CK2α (human) (UniProt P68400). The assay can be described thus: radioligand binding; biotinylated MBP-CK2β (250 ng/well) on streptavidin-coated 96-well plates; soluble [35S]methionine-labeled CK2α (10^5 cpm) with or without competitor; 50 mM Tris/HCl pH 7.2, 0.4 M NaCl; 1 h at room temperature, washed three times, scintillation counting.

Structures can show the parent of a compound that is named as a salt.

Sequence of CK2α (P68400 whole entry): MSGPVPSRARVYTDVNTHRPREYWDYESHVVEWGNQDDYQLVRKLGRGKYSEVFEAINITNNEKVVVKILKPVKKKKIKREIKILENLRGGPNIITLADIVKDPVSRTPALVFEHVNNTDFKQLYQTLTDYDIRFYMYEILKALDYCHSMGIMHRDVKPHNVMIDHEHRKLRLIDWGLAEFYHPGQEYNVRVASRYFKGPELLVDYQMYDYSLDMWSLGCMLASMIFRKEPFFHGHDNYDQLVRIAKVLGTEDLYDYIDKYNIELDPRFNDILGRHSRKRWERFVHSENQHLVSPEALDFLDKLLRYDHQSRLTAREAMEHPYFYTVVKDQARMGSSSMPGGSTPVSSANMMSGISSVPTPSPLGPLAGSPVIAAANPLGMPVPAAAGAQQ
T1 sequence (P68400 whole entry): as above
Sequence of [35S]methionine-labeled CK2α (human) (P68400 whole entry): as above

Turning to `O=C(O)c1ccc2c(c1)nc(Nc1cccc(Cl)c1)c1ccncc12` [CX-4945], the Gini coefficient in assay [1] is 0.62.
The compound `CS(=O)(=O)NCCN1CCC(COC(=O)c2c[nH]c3ccc(F)cc23)CC1` [Compound 2, (1-(2-(Methylsulfonamido)ethyl)piperidin-4-yl)methyl 5-fluoro-1H-indole-3-carboxylate hydrochloride] had an inhibition at 50 µM against CK2α2β2 holoenzyme of 25%. Besides, on CK2α, the dissociation constant Kd is 44 ± 6 µM.
For `O=C(OCC1CCN(CCNS(=O)(=O)c2ccccc2)CC1)c1c[nH]c2ccc(F)cc12` [Compound 5, (1-(2-(Phenylsulfonamido)ethyl)piperidin-4-yl)methyl 5-fluoro-1H-indole-3-carboxylate hydrochloride], in that order: 66% and 43 ± 2 µM.
For the compound `COc1[nH]c2ccc(F)cc2c1C(=O)OCC1CCN(CCNS(=O)(=O)c2ccccc2)CC1.Cl` [Compound 6, 1-(2-(Phenylsulfonamido)ethyl)piperidin-4-yl)methyl 5-fluoro-2-methoxy-1H-indole-3-carboxylate hydrochloride], the Kd at CK2α was determined as 30 ± 2 µM. Further, in the assay with MCF10A cells, it took 22 ± 3 µM to inhibit growth by half (GI50).
CK2β-derived cyclic peptide, Pc yielded a percent inhibition of CK2α/CK2β complex formation at 60 μM in assay [2] of 90%.
